Like-named read-outs stand apart in the source and are kept apart here.

We go through 6 molecules from paper PMC10763724 (Molecular cancer therapeutics, 2019).

Assay [1] concerns ALDH1A1. The following applies: cited from earlier work.
Assay [2] concerns ALDH3A1. The following applies: cited from earlier work.
A further assay relates to HNSCC xenograft models. The following applies: 24 mg/kg/day, implantable osmotic mini pumps; cited from earlier work.
For assay [3], the system named is ALDH2. The following applies: read-out: IC50 for ALDH2; cited from earlier work.
Assay [4] deals with T1, ALDH2 (Homo sapiens, UniProt P05091).
T1 sequence (P05091 18-517): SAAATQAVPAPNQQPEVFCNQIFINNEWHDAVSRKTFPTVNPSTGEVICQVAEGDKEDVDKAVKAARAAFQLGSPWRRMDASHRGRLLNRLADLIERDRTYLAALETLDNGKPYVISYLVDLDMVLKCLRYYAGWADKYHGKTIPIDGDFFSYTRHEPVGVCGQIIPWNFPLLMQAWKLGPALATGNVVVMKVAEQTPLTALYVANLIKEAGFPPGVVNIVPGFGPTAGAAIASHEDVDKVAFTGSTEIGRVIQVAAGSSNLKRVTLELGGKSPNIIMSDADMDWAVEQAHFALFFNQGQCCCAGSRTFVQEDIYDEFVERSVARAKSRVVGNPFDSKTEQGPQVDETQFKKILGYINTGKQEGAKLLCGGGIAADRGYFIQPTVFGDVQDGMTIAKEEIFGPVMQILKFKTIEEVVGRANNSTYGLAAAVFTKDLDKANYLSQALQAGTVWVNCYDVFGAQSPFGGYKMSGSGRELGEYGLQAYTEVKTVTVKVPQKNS
Description: ALDH2 isoform-specific enzyme assay. The class given is biochemical. The settings on record: read-out: IC50s ALDH2; acetaldehyde substrate, 15 minutes preincubation.

The target in assay [5] is T2, ALDH1A1 (Homo sapiens, UniProt P00352).
T2 sequence (P00352 1-501): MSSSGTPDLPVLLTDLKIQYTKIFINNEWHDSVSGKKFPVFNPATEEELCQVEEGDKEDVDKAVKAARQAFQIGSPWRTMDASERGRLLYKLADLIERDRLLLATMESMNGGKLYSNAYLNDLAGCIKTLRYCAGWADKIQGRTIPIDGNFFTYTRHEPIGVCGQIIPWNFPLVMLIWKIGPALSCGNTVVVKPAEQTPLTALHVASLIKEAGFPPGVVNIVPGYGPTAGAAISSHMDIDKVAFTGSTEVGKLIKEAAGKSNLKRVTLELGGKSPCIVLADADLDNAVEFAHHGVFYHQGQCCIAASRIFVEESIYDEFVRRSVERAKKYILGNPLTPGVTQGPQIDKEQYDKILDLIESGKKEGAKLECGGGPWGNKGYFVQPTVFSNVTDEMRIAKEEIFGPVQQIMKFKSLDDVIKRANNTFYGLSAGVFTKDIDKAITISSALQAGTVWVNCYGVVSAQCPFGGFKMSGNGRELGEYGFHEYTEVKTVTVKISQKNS
Description: ALDH1A1 isoform-specific enzyme assay. The following applies: 15 minutes preincubation. The class given is biochemical.

The subject of assay [6] is UACC 903 and 1205 Lu cells. Description: Lipid peroxidation. The settings on record: 5 μmol/L, 24 hours. The class given is cell-based, human.
Assay [7] has as its system UACC 903 and 1205 Lu cells. The assay is described as follows: ROS assay. The class given is cell-based, human. The settings on record: 5 μmol/L, 24 hours.
In assay [8] the target is T3, ALDH3A1 (Homo sapiens, UniProt P30838).
T3 sequence (P30838 1-453): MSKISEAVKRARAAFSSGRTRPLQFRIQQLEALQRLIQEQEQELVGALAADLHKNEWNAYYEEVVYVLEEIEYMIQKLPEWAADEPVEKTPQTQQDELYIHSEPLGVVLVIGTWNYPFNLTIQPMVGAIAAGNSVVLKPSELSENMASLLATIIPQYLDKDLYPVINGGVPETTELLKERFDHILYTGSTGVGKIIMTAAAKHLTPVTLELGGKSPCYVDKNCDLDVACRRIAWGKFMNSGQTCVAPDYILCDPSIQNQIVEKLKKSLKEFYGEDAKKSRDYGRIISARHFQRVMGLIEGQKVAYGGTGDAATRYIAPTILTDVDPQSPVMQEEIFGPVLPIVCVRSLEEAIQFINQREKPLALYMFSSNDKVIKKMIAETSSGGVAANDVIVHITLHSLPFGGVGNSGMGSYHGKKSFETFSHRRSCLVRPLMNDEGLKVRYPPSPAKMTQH
The assay is described as follows: ALDH3A1 isoform-specific enzyme assay. The class given is biochemical. The settings on record: 15 minutes preincubation.

In the next assay the test system is UACC 903 cells. Description: MTS cell viability assay, UACC 903. The class given is cell-based, human. The following applies: 100 μmol/L, 72 hours. (Tetrazolium dyes change colour on reduction, which living cells bring about.)
Assay [9] concerns total cellular ALDH activity, UACC 903 cell lysates. The assay is described as follows: Total cellular ALDH activity assay, UACC 903 cell lysates. The following applies: 1 μmol/L, 15 minutes. The class given is biochemical, human.
For assay [10], the system named is total cellular ALDH activity, 1205 Lu cell lysates. The assay is described as follows: Total cellular ALDH activity assay, 1205 Lu cell lysates. The class given is biochemical, human. The settings on record: 1 μmol/L, 15 minutes.

With `CN(C)CCC(=O)c1ccc(Br)cc1` [Aldi-6], the IC50 with ALDH1A1 [1] (read-out: IC50 for ALDH1A1) was 0.6 µM; in the assay with ALDH3A1 [2] (read-out: IC50 for ALDH3A1) it was 1 µM; in the assay with ALDH2 [3] it was 0.8 µM. Further, the “tumor reduction in HNSCC xenograft models” value in the assay with HNSCC xenograft models is on record as 60%.

Consider `Cc1nc2ccccc2n1S(=O)(=O)c1ccc(F)cc1` [CB7], for which the IC50 at ALDH2 [4] stood at 144 µM; on ALDH1A1 [5] (read-out: IC50s ALDH1A1, propionaldehyde substrate) it was 139 µM.

As for `CCOC(=O)CSc1nc2c(sc3ccccc32)c(=O)n1CCCN1CCCC1` [CM037], the “lipid peroxidation and toxic aldehyde accumulation” value in assay [6] was “significantly increased lipid peroxidation and toxic aldehyde accumulation”. In [7], the ROS levels result was “significantly increased ROS levels”.

For `CCN(CC)c1ccc(C=O)cc1` [DEAB], on ALDH3A1 [8] (read-out: IC50s ALDH3A1, 4-nitrobenzaldehyde substrate), the IC50 is 15.1 µM. Besides, the “lipid peroxidation and toxic aldehyde accumulation” value in [6] is “significantly increased lipid peroxidation and toxic aldehyde accumulation”. In addition, the “reduction of UACC 903 cell survival” value in the assay with UACC 903 cells is reported as 30%. Besides, in [7], the ROS levels entry is on record as “significantly increased ROS levels”.

Regarding `CSC(=O)C#CC(C)(C)N(C)C` [DIMATE, 4-dimethylamino-4-methyl–pent-2-ynthioic acid-S-methylester], the IC50 with ALDH1A1 [1] (read-out: IC50 toward ALDH1A1) and in the assay on ALDH3A1 [2] (read-out: IC50 toward ALDH3A1) was 5 µM throughout.

Regarding `O=C1Nc2ccccc2C1=O` [Isatin], the “reduction of total cellular ALDH activity, UACC 903” value in assay [9] is “ineffective”. For the same molecule, the IC50 is 5.05 µM against ALDH3A1 [8] (IC50s ALDH3A1, 4-nitrobenzaldehyde substrate) and 15.6 µM at ALDH1A1 [5] (IC50s ALDH1A1, propionaldehyde substrate). Moreover, the “reduction of total cellular ALDH activity, 1205 Lu” value in assay [10] is given as “ineffective”.
